Results as given in patent US11945794B2, “Nuclear transport modulators and uses thereof” (Karyopharm Therapeutics Inc., priority 2013, dated 2024).

Columns and labels:
Test in all cases: MTT assay panel
Type in all cases: cell-based
U118MG = conditions: Homo sapiens, U-118-MG; U118MG cells, 72 hours
Method: (§1) Compound 124 was further tested against a panel of selected solid and hematological cancer cell lines and selected normal cell lines in an MTT assay. Briefly, the various cell lines above were plated at different densities on day 1. […] Cell Titer AQueous One was added to each well, and the plates were read in a plate reader at OD 495.

SW-620 = conditions: Homo sapiens; SW-620 cells, 72 hours
Method: as §1

Daudi = conditions: Homo sapiens; Daudi cells, 72 hours
Method: as §1

HCT-15 = conditions: Homo sapiens; HCT-15 cells, 72 hours
Method: as §1

NCI-H889 = conditions: Homo sapiens; NCI-H889 cells, 72 hours
Method: as §1

MS751 = MS751 cells, 72 hours
Method: as §1

NCI-H820 = NCI-H820 cells, 72 hours
Method: as §1

NCI-H1563 = conditions: Homo sapiens; NCI-H1563 cells, 72 hours
Method: as §1

MDA-MB-231 = conditions: Homo sapiens; MDA-MB-231 cells, 72 hours
Method: as §1

TF-1 = conditions: Homo sapiens; TF-1 cells, 72 hours
Method: as §1

HCT116.1 = HCT116.1 cells, 72 hours
Method: as §1

CAPAN-1 = conditions: Homo sapiens; CAPAN-1 cells, 72 hours
Method: as §1

THP1 = conditions: Homo sapiens, THP-1; THP1 cells, 72 hours
Method: as §1

HCT116 = conditions: Homo sapiens, HCT-116; HCT116 cells, 72 hours
Method: as §1

Farage = Farage cells, 72 hours
Method: as §1

NCI-H226 = conditions: Homo sapiens; NCI-H226 cells, 72 hours
Method: as §1

NCI-H187 = conditions: Homo sapiens; NCI-H187 cells, 72 hours
Method: as §1

TFK-1 = TFK-1 cells, 72 hours
Method: as §1

LS-180 = conditions: Homo sapiens, LS180; LS-180 cells, 72 hours
Method: as §1

NCI-H2170 = conditions: Homo sapiens; NCI-H2170 cells, 72 hours
Method: as §1

Toledo = conditions: Homo sapiens; Toledo cells, 72 hours
Method: as §1

SW-1116 = conditions: Homo sapiens; SW-1116 cells, 72 hours
Method: as §1

PATU-8988S = PATU-8988S cells, 72 hours
Method: as §1

MINO = conditions: Homo sapiens; MINO cells, 72 hours
Method: as §1

RL = conditions: Homo sapiens; RL cells, 72 hours
Method: as §1

SW-837 = conditions: Homo sapiens, SW837; SW-837 cells, 72 hours
Method: as §1

NCI-H1650 = conditions: Homo sapiens; NCI-H1650 cells, 72 hours
Method: as §1

IMR-90 = conditions: Homo sapiens; IMR-90 cells, 72 hours
Method: as §1

DB = conditions: Homo sapiens; DB cells, 72 hours
Method: as §1

U-266 = conditions: Homo sapiens; U-266 cells, 72 hours
Method: as §1

MV-4-11 = conditions: Homo sapiens, MV4-11; MV-4-11 cells, 72 hours
Method: as §1

NCI-H747 = conditions: Homo sapiens; NCI-H747 cells, 72 hours
Method: as §1

OCIAML5 = conditions: Homo sapiens, OCI-AML-5; OCIAML5 cells, 72 hours
Method: as §1

NCI-H358 = conditions: Homo sapiens; NCI-H358 cells, 72 hours
Method: as §1

HPAF-II = conditions: Homo sapiens; HPAF-II cells, 72 hours
Method: as §1

HCC-2935 = conditions: Homo sapiens, HCC2935; HCC-2935 cells, 72 hours
Method: as §1

HS-Sultan = HS-Sultan cells, 72 hours
Method: as §1

PANC-10.05 = conditions: Homo sapiens, Panc1005; PANC-10.05 cells, 72 hours
Method: as §1

LS-174T = conditions: Homo sapiens, LS174T; LS-174T cells, 72 hours
Method: as §1

BL-40 = BL-40 cells, 72 hours
Method: as §1

`NC(=O)/C(=C/n1cnc(-c2cc(C(F)(F)F)cc(C(F)(F)F)c2)n1)c1cncnc1` [Compound 124, (E)-3-(3-(3,5-bis(trifluoromethyl)phenyl)-1H-1,2,4-triazol-1-yl)-2-(pyrimidin-5-yl)acrylamide] gave an IC50 (U118MG) of 0.37 µM, an IC50 (SW-620) of 0.42 µM and an IC50 (Daudi) of 0.008 µM. The IC50 (HCT-15) was 0.46 µM, the IC50 (NCI-H889) was 1.02 µM and the IC50 (MS751) was 0.4 µM. For the same molecule, the IC50 (NCI-H820) was 3.4 µM, the IC50 (NCI-H1563) was 7.82 µM and the IC50 (MDA-MB-231) was 0.12 µM. For the same molecule, the IC50 (TF-1) was 0.11 µM, the IC50 (HCT116.1) was 0.2 µM and the IC50 (CAPAN-1) was 0.02 µM. For the same molecule, the IC50 (THP1) was 3.38 µM, the IC50 (HCT116) was 0.11 µM and the IC50 (Farage) was 0.46 µM. For the same molecule, the IC50 (NCI-H226) was 0.03 µM, the IC50 (NCI-H187) was 0.53 µM and the IC50 (TFK-1) was over 10 µM. For the same molecule, the IC50 (LS-180) was over 10 µM, the IC50 (NCI-H2170) was 2.14 µM and the IC50 (Toledo) was 0.07 µM. The IC50 (SW-1116) was 0.41 µM, the IC50 (PATU-8988S) was 10 µM and the IC50 (MINO) was 0.02 µM. The IC50 (RL) was 0.02 µM, the IC50 (SW-837) was 0.5 µM and the IC50 (NCI-H1650) was over 10 µM. It also gave an IC50 (IMR-90) of over 10 µM, an IC50 (DB) of 0.06 µM and an IC50 (U-266) of 0.23 µM. For the same molecule, the IC50 (MV-4-11) was 0.1 µM, the IC50 (NCI-H747) was 0.07 µM and the IC50 (OCIAML5) was 0.04 µM. For the same molecule, the IC50 (NCI-H358) was 0.42 µM, the IC50 (HPAF-II) was over 10 µM and the IC50 (HCC-2935) was 6.7 µM. For the same molecule, the IC50 (HS-Sultan) was 0.06 µM, the IC50 (PANC-10.05) was 0.99 µM and the IC50 (LS-174T) was 10 µM. The IC50 (BL-40) was 0.4 µM.
